Two compounds from patent publication US20250205264A1, “METHODS OF USING AVERMECTIN COMPOSITIONS FOR THE TREATMENT OF SPASTICITY AND DOSING REGIMENS” (priority 2022, published 2025) can be followed below.

The structures appear in SMILES notation.

This experiment has as its system pentylenetetrazol (PTZ)-induced ictal brain activity. Briefly: Modulation of PTZ-induced seizures, BOLD fMRI. In kind it is in vivo, male Wistar rats. Particulars: for PTZ-induced brain activity: positive control compounds, all tested brain regions, high statistical significance. The method, then:
Functional MRI (fMRI) was performed using a high-field preclinical MRI system in anesthetized male Wistar rats in order to determine the modulation of pentylenetetrazol (PTZ)-induced ictal brain activity by chronic treatment with test compound (TC). […] Vehicle and 3 mg/kg Alprazolam served as controls (see, Table 11) Seizures were induced with PTZ in each experimental group. A schematic of the study design can be seen in FIG. 6. Various physiological parameters were also measured throughout the experiment including body weight, CO2 levels, blood pH, and heart rate. […] Vehicle and 3 mg/kg Alprazolam served as controls (see, Table 12).

On to `Cc1nnc2n1-c1ccc(Cl)cc1C(c1ccccc1)=NC2` [Alprazolam], for which the PTZ-induced brain activity entry is “effectively cancelled PTZ-induced brain activity”. For the same compound, the “Statistical significances of BOLD fMRI AUC, Vehicle vs. Alprazolam (brain regions)” value (FIG. 7A, 3 mg/kg+PTZ, two-way ANOVA) is listed as “in all”.
Turning to `CN1C(=O)CN=C(c2ccccc2)c2cc(Cl)ccc21` [Diazepam], the PTZ-induced brain activity result was “effectively cancelled PTZ-induced brain activity”.
